Reference: ChEMBL document CHEMBL1201862, “PubChem BioAssay data set” (2004)
One block for each compound: values may come before it. Activity calls are given as the source filed them.

Legend:
[1] = biological target: T1, Type-1 angiotensin II receptor (Homo sapiens, UniProt P30556); test: agonist activity at AGTR1 – cell-based, uHTS hits, selectivity assay for APJ receptor agonist project, dose response (AID 488865); format: functional;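 further: beta-arrestin recruitment to AT1 measured by enzyme fragment complementation luminescence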
T1 sequence (P30556 whole entry): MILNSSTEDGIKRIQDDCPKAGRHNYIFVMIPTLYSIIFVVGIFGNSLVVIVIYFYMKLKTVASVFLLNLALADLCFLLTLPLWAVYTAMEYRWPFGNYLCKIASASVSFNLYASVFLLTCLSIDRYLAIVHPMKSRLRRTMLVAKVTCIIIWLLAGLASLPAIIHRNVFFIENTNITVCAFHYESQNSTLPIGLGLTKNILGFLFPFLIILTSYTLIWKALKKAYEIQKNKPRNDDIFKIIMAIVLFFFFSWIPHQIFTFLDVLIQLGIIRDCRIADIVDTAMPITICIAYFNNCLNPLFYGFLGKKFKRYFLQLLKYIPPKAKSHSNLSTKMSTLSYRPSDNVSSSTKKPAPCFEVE

[2] = biological target: T2, Aryl hydrocarbon receptor (Homo sapiens, UniProt P35869); test: Luminescence-based cell-based high throughput dose response assay for activators of the Aryl Hydrocarbon Receptor (AHR). [Related pubchem assays: 2796 (Primary screen (AHR activators in singlicate)), 2845 (Confirmation screen (AHR activators in triplicate)), 434939 (Counterscreen (PXR activators in triplicate)), 2804 (Summary (AHR activators))]; format: ADME
T2 sequence (P35869 whole entry): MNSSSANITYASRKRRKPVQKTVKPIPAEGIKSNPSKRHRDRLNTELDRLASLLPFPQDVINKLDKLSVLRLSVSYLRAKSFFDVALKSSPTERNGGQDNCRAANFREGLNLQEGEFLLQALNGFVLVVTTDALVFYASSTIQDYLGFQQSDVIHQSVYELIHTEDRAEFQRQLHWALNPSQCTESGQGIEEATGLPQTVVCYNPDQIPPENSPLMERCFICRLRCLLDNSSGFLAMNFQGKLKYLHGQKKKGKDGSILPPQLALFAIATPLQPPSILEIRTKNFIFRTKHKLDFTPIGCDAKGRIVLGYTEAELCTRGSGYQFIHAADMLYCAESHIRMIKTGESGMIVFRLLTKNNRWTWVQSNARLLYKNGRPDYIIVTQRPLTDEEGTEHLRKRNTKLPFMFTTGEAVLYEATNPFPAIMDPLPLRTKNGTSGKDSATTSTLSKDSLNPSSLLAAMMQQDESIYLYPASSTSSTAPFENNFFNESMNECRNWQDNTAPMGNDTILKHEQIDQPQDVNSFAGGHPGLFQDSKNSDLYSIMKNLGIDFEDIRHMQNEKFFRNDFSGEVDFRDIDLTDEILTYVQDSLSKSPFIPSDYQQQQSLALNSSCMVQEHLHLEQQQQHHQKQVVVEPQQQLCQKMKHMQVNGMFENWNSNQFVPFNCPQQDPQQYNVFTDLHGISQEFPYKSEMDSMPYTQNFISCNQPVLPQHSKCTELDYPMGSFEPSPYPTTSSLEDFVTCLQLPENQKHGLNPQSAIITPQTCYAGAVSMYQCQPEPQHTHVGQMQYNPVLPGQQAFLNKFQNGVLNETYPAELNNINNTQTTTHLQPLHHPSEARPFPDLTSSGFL

[3] = biological target: T3, Runt-related transcription factor 1/Core-binding factor subunit beta (Homo sapiens, UniProt Q01196+Q13951); test: disruptors of Runt domain/CBFb-SMMHC interaction – biochemical, FRET, Cerulean-Runt, Venus-CBFb-SMMHC, uHTS, […] (AID 1434); format: protein assay
Troponin, cardiac muscle = Troponin, cardiac muscle (Homo sapiens, UniProt P19429+P45379+P63316); test: Fluorescence-based biochemical high throughput dose response assay for activators of the calcium sensitivity of cardiac Regulated Thin Filaments (RTF). [Related pubchem assays (depositor defined):AID493008, AID493018, AID504382, AID504383]; format: protein-complex assay
[4] = biological target: T3, Runt-related transcription factor 1/Core-binding factor subunit beta; test: Runt domain/CBFb-SMMHC interaction disruptors – biochemical, TR-FRET (AID 1438); format: protein assay
[5] = biological target: T4, DNA repair and recombination protein RAD54-like (Homo sapiens, UniProt Q92698); test: RAD54 Holliday junction migration blockers – biochemical, fluorescence, cherry-picked samples, dose series, confirmation (AID 651657); format: functional
T4 sequence (Q92698 whole entry): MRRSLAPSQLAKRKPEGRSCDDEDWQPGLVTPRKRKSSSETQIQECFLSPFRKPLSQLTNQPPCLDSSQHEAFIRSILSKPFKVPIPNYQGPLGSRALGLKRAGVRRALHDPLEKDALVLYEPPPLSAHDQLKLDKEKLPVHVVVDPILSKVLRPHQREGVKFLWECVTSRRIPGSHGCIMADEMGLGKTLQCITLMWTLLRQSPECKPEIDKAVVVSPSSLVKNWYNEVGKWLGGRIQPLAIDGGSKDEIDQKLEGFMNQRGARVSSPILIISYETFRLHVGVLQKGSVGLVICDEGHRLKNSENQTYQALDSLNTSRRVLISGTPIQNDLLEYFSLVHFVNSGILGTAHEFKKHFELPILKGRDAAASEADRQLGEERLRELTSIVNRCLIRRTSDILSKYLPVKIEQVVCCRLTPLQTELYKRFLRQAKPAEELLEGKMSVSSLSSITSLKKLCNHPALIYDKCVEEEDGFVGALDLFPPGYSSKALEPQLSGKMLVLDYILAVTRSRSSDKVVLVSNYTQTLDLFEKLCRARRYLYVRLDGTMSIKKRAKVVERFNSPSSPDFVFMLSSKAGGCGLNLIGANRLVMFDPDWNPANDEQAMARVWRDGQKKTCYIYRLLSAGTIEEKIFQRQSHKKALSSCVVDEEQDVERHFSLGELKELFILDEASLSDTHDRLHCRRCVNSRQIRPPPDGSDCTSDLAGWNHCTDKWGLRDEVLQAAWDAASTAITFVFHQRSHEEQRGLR

[6] = biological target: DNA damage-inducible transcript 3 protein (Mus musculus, UniProt P35639); format: functional, Cricetulus griseus
[7] = biological target: Glyceraldehyde-3-phosphate dehydrogenase (Homo sapiens, UniProt P04406)
[8] = biological target: Alkaline phosphatase, placental type (Homo sapiens, UniProt P05187); test: human placental alkaline phosphatase inhibition – biochemical, luminescence, confirmation (AID 1512); format: functional

SMILES: CCCSc1nc(O)c(CC)c(=O)n1C(C)CC (centres undefined)
EC50 [1]: > 100 µM (inactive)

SMILES: CC(=O)Nc1ccc2cc3ccc(NC(C)=O)cc3nc2c1
EC50 [2]: > 3.39 µM (active)
IC50 [3]: 14.1 µM (active)
EC50 (Troponin, cardiac muscle): 38.3 µM (inactive)
IC50 [4]: > 100 µM (inactive)
AC50 [5]: 86.2 µM (active)

SMILES: C/C(=N\NC(=O)c1nn(C)c(C)c1Br)c1ccc(NC(=O)c2ccoc2C)cc1
Absolute IC50 (CHOP) [6]: 10 µM

IC50 [7]: > 100 µM (not active)
IC50 [8]: 21.1 µM (active)
SMILES: O=C(NCCO)c1cc(-c2ccc(Cl)cc2Cl)n[nH]1
